Results published in PubChem BioAssay (NCI).
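Assay format: 96-well plates, 48-hour exposure. GI50 is the concentration that inhibits growth by half. TGI marks complete inhibition of growth.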

Tests used:
Assay in all cases: growth of human tumour cells (NCI), 48 h
UO-31 renal = test system: UO-31 renal
CCRF-CEM leukemia = test system: CCRF-CEM leukemia
SR leukemia = test system: SR leukemia
BT-549 breast = test system: BT-549 breast
HL-60(TB) leukemia = test system: HL-60(TB) leukemia
A498 renal = test system: A498 renal
HCC-2998 colon = test system: HCC-2998 colon
SF-539 CNS = test system: SF-539 CNS
NCI-H226 lung = test system: NCI-H226 lung
SF-295 CNS = test system: SF-295 CNS

Structure (SMILES) | TGI (UO-31 renal) [µM] | TGI (CCRF-CEM leukemia) [µM] | TGI (SR leukemia) [µM] | TGI (BT-549 breast) [µM] | TGI (HL-60(TB) leukemia) [µM] | TGI (A498 renal) [µM] | TGI (HCC-2998 colon) [µM] | TGI (SF-539 CNS) [µM] | TGI (NCI-H226 lung) [µM] | TGI (SF-295 CNS) [µM] | GI50 (UO-31 renal) [µM] | GI50 (CCRF-CEM leukemia) [µM] | GI50 (SR leukemia) [µM] | GI50 (BT-549 breast) [µM] | GI50 (HL-60(TB) leukemia) [µM] | GI50 (A498 renal) [µM] | GI50 (HCC-2998 colon) [µM] | GI50 (SF-539 CNS) [µM] | GI50 (NCI-H226 lung) [µM] | GI50 (SF-295 CNS) [µM]
CN1c2ccccc2SC2C(c3ccccc3)=NOC21 (stereo not drawn) | > 100 | > 100 | > 100 | 68.4 | > 100 | > 100 | > 100 | > 100 | > 100 | > 100 | – | – | – | – | – | – | – | – | – | –
COc1c(O)c(OC)c2oc(-c3ccc(O)cc3)c(OC)c(=O)c2c1O | > 100 | > 100 | > 100 | > 100 | > 100 | > 100 | > 100 | > 100 | > 100 | > 100 | – | – | – | – | – | – | – | – | – | –
CC(=Nc1ccc(S(N)(=O)=O)cc1)c1c(O)[nH]c2ccccc12 | > 25 | > 25 | > 25 | > 25 | > 25 | > 25 | > 25 | > 25 | > 25 | > 25 | 7.37 | > 25 | > 25 | > 25 | > 25 | > 25 | > 25 | > 25 | > 23.6 | > 25
CC(C)[O-].CC(C)[O-].CN(CCN(C)Cc1cc(F)cc(F)c1[O-])Cc1cc(F)cc(F)c1[O-].[Ti+4] | 5.46 | > 35.1 | – | 5.92 | > 40.8 | 2.76 | 7.52 | 4.8 | 10.5 | 3.76 | 0.977 | 0.512 | 0.512 | 1.95 | 1.51 | 1.13 | 2.22 | 1.01 | 2.14 | 0.71
COc1cc2nc(-c3ccc(C(F)(F)F)cc3)cc(OCCCN3CCCC3)c2cc1OC | 14.2 | 9.92 | – | 4.95 | 5.86 | 4.31 | 10 | 12.6 | 10.6 | 1.64 | 1.59 | 1.08 | 0.207 | 0.917 | 1 | 1.07 | 2.07 | 2.56 | 0.737 | 0.393
CCCCCCCCCCCCCCCCCCOCC(COCCOCC[N+]1(CCCCCC(=O)[O-])CCCC1)Oc1ncccn1 (stereo not drawn) | 23.6 | 13.9 | 37.1 | 21.4 | 2.6 | 9.55 | 17.4 | 15.8 | 26.7 | 27.2 | – | – | – | – | – | – | – | – | – | –
COc1ccc(-c2cnoc2-c2cc(OC)c3c(c2)OCCO3)cc1 | > 100 | > 100 | 6.29 | 27.8 | 0.975 | 0.164 | 22 | 0.0907 | > 94.4 | 22.3 | 0.283 | 0.0379 | 0.0226 | 0.073 | 0.0289 | 0.0149 | 0.083 | 0.0235 | 0.738 | < 0.0108
CCN(CC)c1ccc(/C=C/C2=[N+](C)c3ccccc3C2(C)C)c(C)c1 | 2.53 | 4.68 | 1.71 | 1.24 | 0.138 | 4.02 | 5.27 | 7 | 1.69 | 1.49 | 0.088 | 0.0271 | 0.0275 | < 0.0309 | 0.0367 | 0.11 | 0.102 | 0.0939 | 0.0444 | 0.0358
